Results taken from patent US20240025912A1 (Merck Sharp & Dohme LLC, priority 2022, published 2024).
pEC50: −log10 of the molar value.

These compounds were tested against GST-RIPK1 (recombinant GST-RIPK1 kinase domain (residues 1-327)) (Homo sapiens (Human), UniProt Q13546) (assay: RIPK1-ADP-Glo Enzymatic Assay). Details: 25 nM GST-RIPK1, 300 μM ATP, 3 μM dephosphorylated-MBP, 30 min pre-incubation, 150 min reaction.
GST-RIPK1 (recombinant GST-RIPK1 kinase domain (residues 1-327)), sequence (Q13546 1-327): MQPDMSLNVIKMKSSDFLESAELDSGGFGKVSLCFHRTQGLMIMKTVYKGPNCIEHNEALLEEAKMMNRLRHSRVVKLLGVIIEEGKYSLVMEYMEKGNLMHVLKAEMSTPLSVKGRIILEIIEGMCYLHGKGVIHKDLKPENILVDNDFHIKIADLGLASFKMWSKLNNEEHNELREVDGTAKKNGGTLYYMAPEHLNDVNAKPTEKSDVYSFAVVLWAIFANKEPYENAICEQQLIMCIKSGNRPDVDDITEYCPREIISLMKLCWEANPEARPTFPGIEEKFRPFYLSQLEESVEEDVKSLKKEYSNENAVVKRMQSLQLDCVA
Type: biochemical
Experimental: The enzymatic activity of RIPK1 is measured using an assay derived from ADP-Glo kit (TMPromega), which provides a luminescent-based ADP detection system. Specifically, the ADP generated by RIPK1 kinase is proportionally detected as luminescent signals in a homogenous fashion. In this context, the assessment of the inhibitory effect of small molecules (EC50) is measured by the effectiveness of the compounds to inhibit the ATP to ADP conversion by RIPK1.
In this assay, the potency (EC50) of each compound was determined from a ten-point (1:3 serial dilution; top compound concentration of 100000 nM) titration curve using the following outlined procedure. To each well of a white ProxiPlus 384 well-plate, 30 nL of compound (1% DMSO in final assay volume of 3 μL) was dispensed, followed by the addition of 2 μL of 1× assay buffer (25 mM Hepes 7.3, 20 mM MgCl2, 50 mM NaCl, 1 mM DTT, 0.005% Tween20, and 0.02% BSA) containing 37.5 nM of GST-RIPK1 (recombinant GST-RIPK1 kinase domain (residues 1-327) enzyme produced from baculovirus-transfected Sf21 cells: MW 62 kDa). Plates were placed in an ambient temperature humidified chamber for a 30 min pre-incubation with compound. Subsequently, each reaction was initiated by the addition of 1 μL 1× assay buffer containing 900 μM ATP and 3 μM dephosphorylated-MBP substrate. The final reaction in each well of 3 μL consists of 25 nM of GST-RIPK1, 300 μM ATP, and 3 μM dephosphorylated-MBP. Kinase reactions were allowed to proceed for 150 min prior to adding ADP-Glo reagents per Promega's outlined kit protocol. Dose-response curves were generated by plotting percent effect (% product conversion; Y-axis) vs. Log 10 compound concentrations (X-axis). EC50 values were calculated using a non-linear regression, four-parameters sigmoidal dose-response model.
`COC(=O)C12CC(n3nc4n(c3=O)[C@H](c3cc(F)cc(F)c3)CC4)(C1)C2(F)F` [Compound 1-36, methyl 3-[(5S)-5-(3,5-difluorophenyl)-3-oxo-6,7-dihydro-3H-pyrrolo[2,1-c][1,2,4]triazol-2(5H)-yl]-2,2-difluorobicyclo[1.1.1]pentane-1-carboxylate] was tested, and the pEC50 was 7.21. `O=c1n(C23CC(F)(C2)C3)nc2n1[C@H](c1ccc(F)cc1)CC2` [Compound 1-37, (5S)-2-(3-fluorobicyclo[1.1.1]pentan-1-yl)-5-(4-fluorophenyl)-2,5,6,7-tetrahydro-3H-pyrrolo[2,1-c][1,2,4]triazol-3-one] showed a pEC50 of 7.18. In the case of `N#CC12CC(n3nc4n(c3=O)[C@H](c3ccc(F)cc3)CC4)(C1)C2` [Compound 1-38, 3-[(5S)-5-(4-fluorophenyl)-3-oxo-6,7-dihydro-3H-pyrrolo[2,1-c][1,2,4]triazol-2(5H)-yl]bicyclo[1.1.1]pentane-1-carbonitrile], the pEC50 was 6.80. `N#CC12CCC(n3nc4n(c3=O)[C@H](c3ccccc3)CC4)(C1)C2` [Compound 1-39, 4-[(5S)-3-oxo-5-phenyl-6,7-dihydro-3H-pyrrolo[2,1-c][1,2,4]triazol-2(5H)-yl]bicyclo[2.1.1]hexane-1-carbonitrile] gave a pEC50 of 7.33. Compound `O=c1n(C23CC(F)(C2)C3)nc2n1[C@H](c1c(F)cccc1F)CC2` [Compound 1-40, (S)-5-(2,6-difluorophenyl)-2-(3-fluorobicyclo[1.1.1]pentan-1-yl)-2,5,6,7-tetrahydro-3H-pyrrolo[2,1-c][1,2,4]triazol-3-one] has a pEC50 of 7.47. In the case of `O=c1n(C23CC(Cl)(C2)C3)nc2n1[C@H](c1ccccc1)CC2` [Compound 1-41, (5S)-2-(3-chlorobicyclo[1.1.1]pentan-1-yl)-5-phenyl-2,5,6,7-tetrahydro-3H-pyrrolo[2,1-c][1,2,4]triazol-3-one], the pEC50 was 7.48. `O=c1n(C23CC(Cl)(C2)C3)nc2n1[C@H](c1cccc(F)c1)CC2` [Compound 1-42, (S)-2-(3-chlorobicyclo[1.1.1]pentan-1-yl)-5-(3-fluorophenyl)-2,5,6,7-tetrahydro-3H-pyrrolo[2,1-c][1,2,4]triazol-3-one] was tested, and the pEC50 was 7.73. Compound `N#CC12CC(n3nc4n(c3=O)[C@H](c3c(F)cccc3F)CC4)(C1)C2` [Compound 1-43, (S)-3-(5-(2,6-difluorophenyl)-3-oxo-6,7-dihydro-3H-pyrrolo[2,1-c][1,2,4]triazol-2(5H)-yl)bicyclo[1.1.1]pentane-1-carbonitrile] has a pEC50 of 7.24. Work on `N#CC12CC(n3nc4n(c3=O)[C@H](c3ccc(F)c(F)c3)CC4)(C1)C2` [Compound 1-44, (S)-3-(5-(3,4-difluorophenyl)-3-oxo-6,7-dihydro-3H-pyrrolo[2,1-c][1,2,4]triazol-2(5H)-yl)bicyclo[1.1.1]pentane-1-carbonitrile] yielded a pEC50 of 7.17. With `O=c1n(C23CC(F)(C2)C3)nc2n1[C@H](c1ccc(Cl)cc1)CC2` [Compound 1-45, (S)-5-(4-chlorophenyl)-2-(3-fluorobicyclo[1.1.1]pentan-1-yl)-2,5,6,7-tetrahydro-3H-pyrrolo[2,1-c][1,2,4]triazol-3-one] the pEC50 was 7.42. `N#CC12CC(n3nc4n(c3=O)[C@H](c3ccc(Cl)cc3)CC4)(C1)C2` [Compound 1-46, (S)-3-(5-(4-chlorophenyl)-3-oxo-6,7-dihydro-3H-pyrrolo[2,1-c][1,2,4]triazol-2(5H)-yl)bicyclo[1.1.1]pentane-1-carbonitrile] showed a pEC50 of 7.36. Compound `N#CC12CC(n3nc4n(c3=O)[C@H](c3ccc(F)cc3F)CC4)(C1)C2` [Compound 1-47, (S)-3-(5-(2,4-difluorophenyl)-3-oxo-6,7-dihydro-3H-pyrrolo[2,1-c][1,2,4]triazol-2(5H)-yl)bicyclo[1.1.1]pentane-1-carbonitrile] has a pEC50 of 7.06. With `O=c1n(C23CC(F)(C2)C3)nc2n1[C@H](c1ccc(F)cc1F)CC2` [Compound 1-48, (S)-5-(2,4-difluorophenyl)-2-(3-fluorobicyclo[1.1.1]pentan-1-yl)-2,5,6,7-tetrahydro-3H-pyrrolo[2,1-c][1,2,4]triazol-3-one] the pEC50 was 7.26. `N#CC12CC(n3nc4n(c3=O)[C@H](c3cccc(C(F)(F)F)c3)CC4)(C1)C2` [Compound 1-49, (S)-3-(3-oxo-5-(3-(trifluoromethyl)phenyl)-6,7-dihydro-3H-pyrrolo[2,1-c][1,2,4]triazol-2(5H)-yl)bicyclo[1.1.1]pentane-1-carbonitrile] showed a pEC50 of 6.06. `N#CC12CC(n3nc4n(c3=O)[C@H](c3ccc(C(F)(F)F)cc3)CC4)(C1)C2` [Compound 1-50, (S)-3-(3-oxo-5-(4-(trifluoromethyl)phenyl)-6,7-dihydro-3H-pyrrolo[2,1-c][1,2,4]triazol-2(5H)-yl)bicyclo[1.1.1]pentane-1-carbonitrile] showed a pEC50 of 6.60. Compound `Cc1c(F)cc([C@@H]2CCc3nn(C45CC(C#N)(C4)C5)c(=O)n32)cc1F` [Compound 1-51, (S)-3-(5-(3,5-difluoro-4-methylphenyl)-3-oxo-6,7-dihydro-3H-pyrrolo[2,1-c][1,2,4]triazol-2(5H)-yl)bicyclo[1.1.1]pentane-1-carbonitrile] has a pEC50 of 7.79. `N#CC12CC(n3nc4n(c3=O)[C@H](c3cc(F)cc(F)c3)CCC4)(C1)C2` [Compound 1-53, (S)-3-(5-(3,5-difluorophenyl)-3-oxo-5,6,7,8-tetrahydro-[1,2,4]triazolo[4,3-a]pyridin-2(3H)-yl)bicyclo[1.1.1]pentane-1-carbonitrile] gave a pEC50 of 6.96. Work on `Cc1c(F)cc([C@@H]2CCc3nn(C45CC(F)(C4)C5)c(=O)n32)cc1F` [Compound 1-56, (S)-5-(3,5-difluoro-4-methylphenyl)-2-(3-fluorobicyclo[1.1.1]pentan-1-yl)-2,5,6,7-tetrahydro-3H-pyrrolo[2,1-c][1,2,4]triazol-3-one] yielded a pEC50 of 7.80. For `O=c1n(C23CC(C(F)F)(C2)C3)nc2n1[C@H](c1cncc(F)c1)CC2` [Compound 1-57, (S)-2-(3-(difluoromethyl)bicyclo[1.1.1]pentan-1-yl)-5-(5-fluoropyridin-3-yl)-2,5,6,7-tetrahydro-3H-pyrrolo[2,1-c][1,2,4]triazol-3-one], the pEC50 was 6.43. In the case of `O=c1n(C23CC(F)(C2)C3)nc2n1[C@H](c1cc(F)cc(F)c1)CCC2` [Compound 1-58, (S)-5-(3,5-difluorophenyl)-2-(3-fluorobicyclo[1.1.1]pentan-1-yl)-5,6,7,8-tetrahydro-[1,2,4]triazolo[4,3-a]pyridin-3(2H)-one], the pEC50 was 7.34. Compound `O=c1n(C23CC(Cl)(C2)C3)nc2n1[C@H](c1cnccn1)CC2` [Compound 1-59, (S)-2-(3-chlorobicyclo[1.1.1]pentan-1-yl)-5-(pyrazin-2-yl)-2,5,6,7-tetrahydro-3H-pyrrolo[2,1-c][1,2,4]triazol-3-one] has a pEC50 of 7.27. For `N#CC12CCC(n3nc4n(c3=O)[C@H](c3cnccn3)CC4)(C1)C2` [Compound 1-60, (S)-4-(3-oxo-5-(pyrazin-2-yl)-6,7-dihydro-3H-pyrrolo[2,1-c][1,2,4]triazol-2(5H)-yl)bicyclo[2.1.1]hexane-1-carbonitrile], the pEC50 was 6.29. In the case of `O=c1n(C23CCC(C2)C3)nc2n1[C@H](c1cnccn1)CC2` [Compound 1-61, (S)-2-(bicyclo[2.1.1]hexan-1-yl)-5-(pyrazin-2-yl)-2,5,6,7-tetrahydro-3H-pyrrolo[2,1-c][1,2,4]triazol-3-one], the pEC50 was 6.16. Work on `N#CC12CC(n3nc4n(c3=O)[C@H](c3cccc(Cl)c3)CC4)(C1)C2` [Compound 1-62, (S)-3-(5-(3-chlorophenyl)-3-oxo-6,7-dihydro-3H-pyrrolo[2,1-c][1,2,4]triazol-2(5H)-yl)bicyclo[1.1.1]pentane-1-carbonitrile] yielded a pEC50 of 7.01. `O=c1n(C23CC(F)(C2)C3)nc2n1[C@H](c1cccc(Cl)c1)CC2` [Compound 1-63, (S)-5-(3-chlorophenyl)-2-(3-fluorobicyclo[1.1.1]pentan-1-yl)-2,5,6,7-tetrahydro-3H-pyrrolo[2,1-c][1,2,4]triazol-3-one] gave a pEC50 of 7.17. With `N#CC12CC(n3nc4n(c3=O)[C@@H](c3cc(F)cc(F)c3)CS4)(C1)C2` [Compound 1-64, (S)-3-(5-(3,5-difluorophenyl)-3-oxo-5,6-dihydrothiazolo[2,3-c][1,2,4]triazol-2(3H)-yl)bicyclo[1.1.1]pentane-1-carbonitrile] the pEC50 was 6.40. `N#CC12CC(n3nc4n(c3=O)[C@H](c3cc(F)cc(F)c3)CS4)(C1)C2` [Compound 1-65, (R)-3-(5-(3,5-difluorophenyl)-3-oxo-5,6-dihydrothiazolo[2,3-c][1,2,4]triazol-2(3H)-yl)bicyclo[1.1.1]pentane-1-carbonitrile] showed a pEC50 of 7.68. In the case of `COc1ccc([C@@H]2CCc3nn(C45CC(F)(C4)C5)c(=O)n32)cc1` [Compound 1-66, (S)-2-(3-fluorobicyclo[1.1.1]pentan-1-yl)-5-(4-methoxyphenyl)-2,5,6,7-tetrahydro-3H-pyrrolo[2,1-c][1,2,4]triazol-3-one], the pEC50 was 7.07.
